10 compounds from patent US20180008587A1, “THIOHYDANTOIN ANDROGEN RECEPTOR ANTAGONISTS FOR THE TREATMENT OF CANCER” (Jaressen Pharmaceutica NV, priority 2016, published 2018) can be followed below.

Numbering of substitutions follows the chain as printed. Like-named read-outs stand apart in the source and are kept apart here.

Holding throughout (type): cell-based
The target in test [1] is T1, wild-type Androgen Receptor (AR-wt) (Homo sapiens, UniProt P10275).
T1 construct: expressed in transfected cells; host or cells: LNCaP (LNCaP AR (cs))
T1 sequence (P10275 1-920): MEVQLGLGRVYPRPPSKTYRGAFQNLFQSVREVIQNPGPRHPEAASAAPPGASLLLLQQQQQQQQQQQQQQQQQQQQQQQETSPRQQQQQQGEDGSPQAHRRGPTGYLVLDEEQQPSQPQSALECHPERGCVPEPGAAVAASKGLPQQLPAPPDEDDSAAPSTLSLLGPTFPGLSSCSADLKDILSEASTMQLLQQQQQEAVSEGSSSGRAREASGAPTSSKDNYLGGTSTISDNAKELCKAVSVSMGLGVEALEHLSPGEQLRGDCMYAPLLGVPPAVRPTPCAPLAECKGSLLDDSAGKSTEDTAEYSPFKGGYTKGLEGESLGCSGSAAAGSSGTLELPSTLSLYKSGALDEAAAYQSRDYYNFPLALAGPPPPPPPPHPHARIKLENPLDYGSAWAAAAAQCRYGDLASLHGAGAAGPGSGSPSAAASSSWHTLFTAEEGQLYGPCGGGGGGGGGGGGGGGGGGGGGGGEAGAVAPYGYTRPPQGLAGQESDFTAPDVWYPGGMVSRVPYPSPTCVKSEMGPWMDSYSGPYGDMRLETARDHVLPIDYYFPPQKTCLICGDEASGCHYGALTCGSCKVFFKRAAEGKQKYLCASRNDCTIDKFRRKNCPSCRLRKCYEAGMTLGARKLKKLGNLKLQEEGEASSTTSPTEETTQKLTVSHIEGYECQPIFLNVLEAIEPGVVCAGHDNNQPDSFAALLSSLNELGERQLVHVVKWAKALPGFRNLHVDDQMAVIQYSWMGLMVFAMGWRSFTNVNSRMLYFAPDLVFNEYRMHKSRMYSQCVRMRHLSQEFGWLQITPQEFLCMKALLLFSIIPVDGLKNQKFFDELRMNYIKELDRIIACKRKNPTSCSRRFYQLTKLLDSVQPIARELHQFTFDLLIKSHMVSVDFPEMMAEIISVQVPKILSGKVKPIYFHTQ
As to the kind of experiment: LNCaP-AR-wt ANT reporter assay (ARE firefly luciferase, antagonist mode). The note with it: for IC50: antagonist mode, 400 pM R-1881 challenge, −Log10(IC50 [Molar]), read-out: LNCaP-AR-wt ANT pIC50 (converted); for Emax: read-out: LNCaP-AR-wt ANT MAX % Inh. In outline: (§1)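 Puromycin-selected pooled LNCaP populations expressing AR-wt or AR-F876L are seeded in CSS medium and treated with compound for 20-24 h at 37 °C. For antagonist testing, agonist is added at 400 pM (WT) or 600 pM (F876L). Potency values derive from least-squares fitting of luminescence RLU.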
(In general: In a reporter assay the amount or activity of a reporter protein is the signal.)

For test [2], the target named is T1, wild-type Androgen Receptor (AR-wt). As to the kind of experiment: LNCaP-AR-wt AG reporter assay (ARE firefly luciferase, agonist mode). Particulars: for Emax: read-out: LNCaP-AR-wt AG MAX % Stim. An outline of the steps:
(§2)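 LNCaP cells stably expressing wild-type or F876L AR (puromycin-selected pooled populations) were cultured in charcoal-stripped serum medium. In antagonist mode, agonist challenge was 400 pM for wild-type and 600 pM for F876L.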

Test [3] has as its target T2, F876L mutant Androgen Receptor (AR-F876L) (Homo sapiens, UniProt P10275, F877L).
T2 construct: expressed in transfected cells; host or cells: LNCaP (LNCaP F876L)
T2 sequence (P10275 1-920 F877L): T1 sequence (P10275 1-920) with F877L
Kind of test: LNCaP-AR-F876L ANT reporter assay (ARE firefly luciferase, antagonist mode). Particulars: for Emax: read-out: LNCaP-AR-F876L ANT MAX % Inh; for IC50: read-out: LNCaP-AR-F876L ANT pIC50 (converted). In outline: as §1

The target in test [4] is T2, F876L mutant Androgen Receptor (AR-F876L). Kind of test: LNCaP-AR-F876L AG reporter assay (ARE firefly luciferase, agonist mode). The note with it: for Emax: read-out: LNCaP-AR-F876L AG MAX % Stim. In outline:
as §2

Setting [5] is: maximum % inhibition of R1881 control response over tested concentration range.
The mark [6] stands for this setting: agonist mode, −Log10(EC50 [Molar]), read-out: LNCaP-AR-wt AG pEC50 (converted).
Where [7] appears, read: maximum % stimulation (agonist response) over tested concentration range.
Where [8] appears, read: agonist mode, −Log10(EC50 [Molar]), read-out: LNCaP-AR-F876L AG pEC50 (converted).

Take `COCCOc1ccc(N2C(=S)N(c3cnc(C#N)c(C)c3)C(=O)C23CCC3)cc1F` [Cpd 100, 5-[8-[3-fluoro-4-(2-methoxyethoxy)phenyl]-5-oxo-7-thioxo-6,8-diazaspiro[3.4]octan-6-yl]-3-methyl-pyridine-2-carbonitrile]: the IC50 is 417 nM in test [1] and 257 nM in test [3]. For the same compound, the Emax was determined as 102% in test [1] (setting [5]), 1.8% in test [2] (setting [7]), 97.2% in test [3] (setting [5]) and 1.7% in test [4] (setting [7]). The EC50 in test [2] (setting [6]) and in test [4] (setting [8]) was more than 15100 nM throughout.

For the compound `Cc1cc(N2C(=O)C3(CCC3)N(c3ccc(C4CCOCC4)cc3)C2=S)cnc1C#N` [Cpd 101, 3-methyl-5-[5-oxo-8-(4-tetrahydropyran-4-ylphenyl)-7-thioxo-6,8-diazaspiro[3.4]octan-6-yl]pyridine-2-carbonitrile], the IC50 in test [1] was 479 nM; in test [3] it was 363 nM. Besides, the Emax is 99.4% in test [1], 1.1% in test [2], 95.3% in test [3] and 1.7% in test [4]. Also, the EC50 in test [2] and in test [4] was more than 15100 nM in each case.

For the compound `N#Cc1ncc(N2C(=O)C3(CCC3)N(c3ccc(F)cc3)C2=S)cc1C(F)(F)F` [Cpd 102, 5-[8-(4-fluorophenyl)-5-oxo-7-thioxo-6,8-diazaspiro[3.4]octan-6-yl]-3-(trifluoromethyl)pyridine-2-carbonitrile], the IC50 in test [1] is 646 nM; in test [3], 501 nM. In addition, the Emax was found to be 101% in test [1] (setting [5]), 0.9% in test [2] (setting [7]), 99.6% in test [3] (setting [5]) and 1.9% in test [4] (setting [7]). Besides, the EC50 in test [2] (setting [6]) and in test [4] (setting [8]) was more than 15100 nM in each case.

With `N#Cc1ncc(N2C(=O)C3(CCC3)N(c3ccc(Oc4ccccn4)cc3)C2=S)cc1C(F)(F)F` [Cpd 103, 5-[5-oxo-8-[4-(2-pyridyloxy)phenyl]-7-thioxo-6,8-diazaspiro[3.4]octan-6-yl]-3-(trifluoromethyl)pyridine-2-carbonitrile], the IC50 in test [1] is 562 nM; in test [3] it was 107 nM. The Emax was determined as 29% in test [1], 4% in test [2], 64.9% in test [3] and 2% in test [4]. Moreover, the EC50 in test [2] and in test [4] was more than 15100 nM each time.

For `Cc1cc(N2C(=O)C3(CCC3)N(c3ccc(-c4cncc(F)c4)cc3)C2=S)cnc1C#N` [Cpd 104, 5-[8-[4-(5-fluoro-3-pyridyl)phenyl]-5-oxo-7-thioxo-6,8-diazaspiro[3.4]octan-6-yl]-3-methyl-pyridine-2-carbonitrile], the IC50 in test [1] is 129 nM; in test [3] it was 12 nM. Moreover, the Emax in test [1] (setting [5]) stood at 99.7%; in test [2] (setting [7]) it was 2.7%; in test [3] (setting [5]), 98.4%; in test [4] (setting [7]), 2.2%. The EC50 in test [2] (setting [6]) and in test [4] (setting [8]) was more than 15100 nM in each case.

As for `N#Cc1ncc(N2C(=O)C3(CCC3)N(c3ccc(OCCN4CCNCC4)c(F)c3)C2=S)cc1C(F)(F)F` [Cpd 105, 5-[8-[3-fluoro-4-(2-piperazin-1-ylethoxy)phenyl]-5-oxo-7-thioxo-6,8-diazaspiro[3.4]octan-6-yl]-3-(trifluoromethyl)pyridine-2-carbonitrile], the figures for the IC50 in test [1] and in test [3] were 575 nM and 490 nM, respectively. Further, the Emax amounted to 95.7% in test [1] (setting [5]), 1.2% in test [2] (setting [7]), 95.3% in test [3] (setting [5]) and 2.3% in test [4] (setting [7]). For the same compound, the EC50 in test [2] (setting [6]) and in test [4] (setting [8]) was more than 15100 nM in each case.

As for `N#Cc1ncc(N2C(=O)C3(CCC3)N(c3cccc(F)c3F)C2=S)cc1C(F)(F)F` [Cpd 106, 5-[8-(2,3-difluorophenyl)-5-oxo-7-thioxo-6,8-diazaspiro[3.4]octan-6-yl]-3-(trifluoromethyl)pyridine-2-carbonitrile], the IC50 in test [1] is 617 nM; in test [3] it was 631 nM. The Emax in test [1] (setting [5]) was determined as 101%; in test [2] (setting [7]), 1.8%; in test [3] (setting [5]), 95.9%; in test [4] (setting [7]), 2.4%. The EC50 in test [2] (setting [6]) and in test [4] (setting [8]) was more than 15100 nM each time.

`N#Cc1ncc(N2C(=O)C3(CCC3)N(c3ccc(Oc4ncccn4)cc3)C2=S)cc1C(F)(F)F` [Cpd 107, 5-[5-oxo-8-(4-pyrimidin-2-yloxyphenyl)-7-thioxo-6,8-diazaspiro[3.4]octan-6-yl]-3-(trifluoromethyl)pyridine-2-carbonitrile]: the figures for the IC50 in test [1] and in test [3] were 562 nM and 162 nM, respectively. For the same compound, the Emax in test [1] (setting [5]) amounted to 89.1%; in test [2] (setting [7]), 2.1%; in test [3] (setting [5]) it was 97.3%; in test [4] (setting [7]), 2.4%. For the same compound, the EC50 in test [2] (setting [6]) and in test [4] (setting [8]) was more than 15100 nM in each case.

In the case of `CN1CCN(CCCNC(=O)c2ccc(N3C(=S)N(c4cnc(C#N)c(C(F)(F)F)c4)C(=O)C34CCC4)cc2F)CC1` [Cpd 108, 4-[6-[6-cyano-5-(trifluoromethyl)-3-pyridyl]-5-oxo-7-thioxo-6,8-diazaspiro[3.4]octan-8-yl]-2-fluoro-N-[3-(4-methylpiperazin-1-yl)propyl]benzamide], the IC50 was 813 nM in test [1] and 389 nM in test [3]. Also, the Emax in test [1] (setting [5]) was 94.5%; in test [2] (setting [7]), 2.3%; in test [3] (setting [5]), 95.6%; in test [4] (setting [7]) it was 2.5%. Further, the EC50 in test [2] (setting [6]) and in test [4] (setting [8]) was more than 15100 nM in each case.

Turning to `CN1CCC(NC(=O)c2ccc(N3C(=S)N(c4cnc(C#N)c(C(F)(F)F)c4)C(=O)C34CCC4)cc2F)CC1` [Cpd 109, 4-[6-[6-cyano-5-(trifluoromethyl)-3-pyridyl]-5-oxo-7-thioxo-6,8-diazaspiro[3.4]octan-8-yl]-2-fluoro-N-(1-methyl-4-piperidyl)benzamide], the IC50 is 1950 nM in test [1] and 741 nM in test [3]. The Emax in test [1] (setting [5]) is 97.9%; in test [2] (setting [7]), 0.2%; in test [3] (setting [5]) it was 98.4%; in test [4] (setting [7]), 1.1%. Moreover, the EC50 in test [2] (setting [6]) and in test [4] (setting [8]) was more than 15100 nM throughout.
